Several values for one entry are separate records, joined by “and”; a condition that tells them apart may be missing. Equal values may be shown once. Read-outs that look alike come from different tables or passages of the source. Some results are limits rather than exact numbers.

The target of test [1] is T1, Human adenosine A1 receptors (Homo sapiens, UniProt P30542).
T1 sequence (P30542 1-326): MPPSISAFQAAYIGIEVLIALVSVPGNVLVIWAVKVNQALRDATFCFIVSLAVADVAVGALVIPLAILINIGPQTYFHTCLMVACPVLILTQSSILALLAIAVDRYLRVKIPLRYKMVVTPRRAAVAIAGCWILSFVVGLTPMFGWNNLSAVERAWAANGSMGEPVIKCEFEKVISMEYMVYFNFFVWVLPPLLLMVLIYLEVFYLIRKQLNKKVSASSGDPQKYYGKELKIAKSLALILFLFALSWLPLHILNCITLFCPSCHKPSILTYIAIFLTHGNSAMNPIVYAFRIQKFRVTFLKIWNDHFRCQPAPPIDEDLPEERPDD
The test can be described thus: biochemical.
Method: Binding experiments were performed according to the data sheet provided by the supplier of the receptor (Perkin Elmer) with modifications:
Approximately 2.4-3 µg protein-containing membranes were incubated for 60 min in a total volume of 100 µL at 27°C: assay buffer:
Test compound data are presented as specific radioligand binding to the receptor.
(§4) In case of ill-defined curves or algorithm-generated minima below the defined non-specific binding, the IC50 value was determined by graphical extrapolation.

The target in another test is Adenosine A1 receptor (Rattus norvegicus, UniProt P25099). Conditions: read-out: IC50 Mean (footnote: Literature value determined in rat), Ji et al., J Med. Chem. 39, 781-788 (1996); cited from earlier work.
The target in test [2] is T2, human adenosine A2A receptors (Homo sapiens, UniProt P29274). The test can be described thus: Adenosine A2A receptor radioligand binding assay ([125I]-ZM241385 competition, membranes of HEK293 cells).
Method: Approximately 0.4-0.9 µg protein-containing membranes were incubated for 60 min in a total volume of 100 µL at 37°C. assay buffer:
Test compound data are presented as specific radioligand binding to the receptor. Specific binding is defined as the difference between the total binding and the non-specific binding determined in the presence of the reference compound as detailed in the previous sections.
as §4
For another test, the system named is adenosine receptors. The test can be described thus: [35S]-GTPγS binding functional assays, basal signal and overall classification (preparation not specified). It is filed as biochemical. The note with it: conclusion from agonist and antagonist mode results. How it is done:
(§1) From every data point the non-specific binding (binding of [^35S]-GTPγS in the presence of 10 µM GDP) was subtracted and the value-normalized to the respective control signal of the respective plate.
(§2) Namely, concentration-response curves of the test compound extracts in the agonist and antagonist mode were normalized to 0% change. In the agonist mode 0% change corresponds to the level of the basal signal; in the antagonist mode 0% change corresponds to the maximal stimulation of the receptor by the reference agonist. In the agonist mode -100% change correponds to 0% specific binding and in the antagonist mode to the basal signal (specific signal without any effector added).
In principle, the [^35S]-GTPγS-binding assay always measures the activation state of all GPCRs present in the homogenates. Even without addition of any effector some GPCRs are activated leading to the basal signal of G protein activation. One reason for effector-independent activation is constitutive activity of receptors, another reason is the putative biological activity of membrane preparations (so could e.g. effectors/agonists be generated in situ by endogenous enzymes of the membrane preparations). A third reason might be that the membrane preparations themselves contain endogenous agonists.
This method is especially suitable to identify antagonistic actions of test compounds. A receptor is maximally pre-stimulated by a receptor-specific agonist (meaning all G proteins coupled to this receptor are maximally activated).

Test [3] concerns the target T2, human adenosine A2A receptors. The test can be described thus: Human recombinant A2A assay ([35S]-GTPγS binding, HEK293 background). It is filed as biochemical. More on the design: purchased PerkinElmer (Rodgau, Germany) RBHA2AM400UA; host or cells: HEK293 cell membranes. From the text:
Both signal transduction pathways are in principle detectable by the GTPγS technique.

Test [4] deals with T1, Human adenosine A1 receptors. The test can be described thus: Adenosine A1 receptor functional assay ([35S]-GTPγS binding, assay conditions II). It is filed as biochemical. Details: purchased PerkinElmer (Rodgau, Germany) ES-010-M400UA; host or cells: CHO-K1 cell membranes. The note with it: for affinities, basal signal and stimulated signal in the human A1 assay: agonist and antagonist mode; for IC50: 1. and 2. Measurement. As for the experimental part: (§3) Membranes were preincubated with the respective effectors for 15 min, the incubation was initiated by the addition of 200 pM [^35S]-GTPγS (60 min incubation at 30°C in a final volume of 200 µL assay buffer). assay buffer:
as §1, §2
In case of ill-defined curves, the IC50 was determined by graphical exploration of the algorithm-generated curve.

Another test addresses Adenosine A2A Receptor (Rattus norvegicus, UniProt P30543). The test can be described thus: Adenosine A2A receptor functional assay ([35S]-GTPγS binding, rat striatal membranes). The format is biochemical. Conditions: for IC50: 1. and 2. Measurement. How it is done:
Male Sprague Dawley rats were sacrificed by decapitation, rat striata were dissected on ice, frozen in liquid nitrogen and stored at -80°C. The tissue was homogenized (20 strokes with a glass-teflon homogenizer, 2000 rounds per minute) at 4°C in 10 mL of 10 mM Tris-HCl pH 7.4, 1 mM EDTA, and centrifuged for 15 min at 25,000 x g. The centrifugation step was repeated twice and the pellet finally resuspended in 50 mM Tris-HCl pH 7.4, 4 mM MgCl2 and 1 mM EDTA, frozen in liquid nitrogen and stored at-80°C until usage.
as §3, §1, §2
In case of ill-defined curves, the IC50 was determined by graphical exploration of the algorithm-generated curve. […]

Test [5] concerns human neuroblastoma cell line SHSY5Y. The test can be described thus: Transcriptomics study (RNA sequencing, gene set enrichment analysis of DEG data). It is filed as cell-based. The note with it: SHSY5Y cells, 20 nM, 24 hr. How it is done:
Cells from human neuroblastoma cell line SHSY5Y were treated with 20 nM of each of the compounds in cell culture media for a 24 hr incubation under normal cell culture conditions. […] DMSO was used as control treatment. Total RNA was isolated using the Qiagen RNAeasy kit according to the manufacturer's protocols and sequenced using short-read Illumina sequencing. The experiment was repeated in three separate biological experiments. Libraries were prepared with the NEBNext Ultra II Directional RNA Library Prep Kit for Illumina protocol according to supplier recommendations.
Briefly, the key stages of this protocol are successively: the purification of polyA-containing mRNA molecules using poly-T oligo-attached magnetic beads from 100 ng total RNA (using the Magnetic mRNA Isolation Kit from NEB), a fragmentation using divalent cations under elevated temperature to obtain approximately 300 bp pieces, double-stranded cDNA synthesis, and finally Illumina adapter ligation and cDNA library amplification by PCR for sequencing. Sequencing was then carried out on paired-end 100 b using the NovaSeq 6000 system. (NovaSeq Control Software V1.7.5). Image analysis and base calling was performed using Illumina Real Time Analysis with default parameters.
Raw data was mapped to reference human genome using STAR pipeline (1) for alignment and quantification of transcripts. Differential gene expression analysis was carried out on read count data using Deseq2 package in R (2). Gene set enrichment analysis was carried out using R package on differentially expressed gene (DEG) data using R package clusterProfiler (3,4) to understand biological, molecular and KEGG processes affected with compound treatment. […] Gene Set Enrichment Analysis (GSEA) was used to interpret gene expression data by focussing on groups of genes that share common biological functions, chromosomal locations, or regulation (5). […] These rankings were further analysed to understand differences in biological function attributed to gene groups and subsequent effects on cell function and response by treatment with compounds according to the present disclosure.

Setting [6] is: IC50 1.M, first measurement, [3H]-DPCPX 1 nM, 60 min, 27°C.
Where [7] appears, read: IC50 2.M, second measurement, [3H]-DPCPX 1 nM, 60 min, 27°C.
[8] abbreviates: IC50 1.M, first measurement, [125I]-ZM241385 20000 cpm, 60 min, 37°C.
[9] abbreviates: IC50 2.M, second measurement, [125I]-ZM241385 20000 cpm, 60 min, 37°C.
[10] abbreviates: agonist mode (effect on basal signal), read-out: IC50 in µM agonist mode.

Chain of Adenosine A2A Receptor (P30543 whole entry): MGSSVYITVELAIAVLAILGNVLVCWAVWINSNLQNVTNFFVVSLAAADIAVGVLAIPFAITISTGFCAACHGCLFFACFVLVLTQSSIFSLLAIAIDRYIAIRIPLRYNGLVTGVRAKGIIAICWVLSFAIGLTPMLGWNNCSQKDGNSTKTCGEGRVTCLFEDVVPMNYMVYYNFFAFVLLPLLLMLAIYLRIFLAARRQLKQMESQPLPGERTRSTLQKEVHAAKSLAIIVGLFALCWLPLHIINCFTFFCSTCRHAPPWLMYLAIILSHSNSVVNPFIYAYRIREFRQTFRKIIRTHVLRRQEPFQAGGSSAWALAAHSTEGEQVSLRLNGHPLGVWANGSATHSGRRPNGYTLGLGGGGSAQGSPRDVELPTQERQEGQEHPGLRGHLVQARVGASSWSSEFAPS
T2 sequence (P29274 whole entry): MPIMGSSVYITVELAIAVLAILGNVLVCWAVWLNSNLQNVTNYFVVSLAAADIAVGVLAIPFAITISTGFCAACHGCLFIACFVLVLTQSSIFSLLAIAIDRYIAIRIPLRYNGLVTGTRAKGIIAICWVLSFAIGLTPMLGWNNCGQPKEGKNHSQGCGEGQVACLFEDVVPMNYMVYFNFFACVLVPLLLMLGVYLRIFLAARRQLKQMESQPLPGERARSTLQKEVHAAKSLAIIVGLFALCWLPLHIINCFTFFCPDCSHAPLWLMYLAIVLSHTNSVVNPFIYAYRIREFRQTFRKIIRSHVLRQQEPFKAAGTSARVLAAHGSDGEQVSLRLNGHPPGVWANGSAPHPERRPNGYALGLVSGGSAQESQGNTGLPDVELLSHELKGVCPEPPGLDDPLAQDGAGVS
Chain of Adenosine A1 receptor (P25099 whole entry): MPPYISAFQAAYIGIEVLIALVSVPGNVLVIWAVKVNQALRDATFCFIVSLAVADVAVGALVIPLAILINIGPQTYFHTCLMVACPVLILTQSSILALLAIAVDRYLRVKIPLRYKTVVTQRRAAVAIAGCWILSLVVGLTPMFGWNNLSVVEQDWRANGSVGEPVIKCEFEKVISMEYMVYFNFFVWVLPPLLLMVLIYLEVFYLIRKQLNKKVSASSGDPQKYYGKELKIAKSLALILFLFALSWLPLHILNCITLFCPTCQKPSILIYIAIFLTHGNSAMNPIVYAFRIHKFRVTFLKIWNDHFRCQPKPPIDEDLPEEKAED

Take `COc1cc2oc(-c3ccc(O)cc3)cc(=O)c2c(O)c1OC` [Cirsimaritin]: the IC50 in test [1] (setting [6]) is 617 µM; in test [1] (setting [7]), 122 µM; on Adenosine A1 receptor, 1.2 µM; in test [2] (setting [8]) it was 1.3 µM; in test [2] (setting [9]), 2.1 µM; in test [2] (IC50 Mean, mean of 1.M and 2.M), 1.7 µM.
As to `O=c1c(O)c(-c2ccccc2)oc2cc(O)cc(O)c12` [Galangin], the IC50 in test [1] (setting [6]) is 6.2 µM; in test [1] (setting [7]) it was 5.1 µM; in test [1] (IC50 Mean, mean of 1.M and 2.M) it was 5.7 µM; in test [4] (setting [10]) it was 10 µM and 12 µM; in test [4] (antagonist mode (CCPA-stimulated signal), read-out: IC50 in µM antagonist mode) it was 7 µM and 3 µM; in test [2] (setting [8]), 0.6 µM. Also, the half-maximal inhibitory concentration (IC50) in test [2] (setting [9]) was 0.83 µM; in test [2] (IC50 Mean, mean of 1.M and 2.M), 0.7 µM; at Adenosine A2A Receptor (setting [10]) it was over 80 µM; on Adenosine A2A Receptor (antagonist mode (CGS 21680-evoked signal), read-out: IC50 in µM antagonist mode), 0.7 µM and 0.4 µM. Besides, the classification entry with adenosine receptors is “adenosine A1 antagonist”. Also, the EC50 in test [3] (basal signal / background in HEK293 cells, read-out: EC50 values, effect on the basal signal in the human recombinant A2A assay) was about 300 µM. Moreover, in test [4], the “affinities, basal signal and stimulated signal in the human A1 assay” value is “below 10 µM”. Besides, on Adenosine A2A Receptor, the “difference between the agonist and antagonist mode in the rat adenosine assay” value is recorded as “at least 100 fold”.
As for `COc1c(O)cc2oc(-c3ccc(O)cc3)cc(=O)c2c1O` [Hispidulin, 5,7-Dihydroxy-2-(4-hydroxyphenyl)-6-methoxy-4H-1-benzopyran-4-one], the “Effect (common themes from gene set enrichment analysis of DEG data)” value was “Suppression of adrenergic signaling in cardiomocytes” in test [5] (comparison Caffeine vs Treatment); “Suppression of blood circulation, muscle contraction. Activation of negative regulation of muscle cell apoptosis” in test [5] (comparison Caffeine vs Treatment, listed as Hispdulin); “Suppression of renin-angiotensis sytem, renin secretion” in test [5] (comparison DMSO vs Treatment). The IC50 in test [1] (setting [6]) is 34 µM; in test [1] (setting [7]) it was 36 µM; in test [1] (IC50 Mean, mean of 1.M and 2.M) it was 35 µM; in test [4] (IC50 in µM agonist mode, agonist mode (effect on basal signal)), 40 µM; in test [4] (IC50 in µM antagonist mode, antagonist mode (CCPA-stimulated signal)), 20 µM; in test [2] (setting [8]), 1.8 µM. The IC50 in test [2] (setting [9]) was determined as 3.2 µM; in test [2] (IC50 Mean, mean of 1.M and 2.M) it was 2.5 µM. Also, the classification entry in the test on adenosine receptors was “antagonist to the adensosine A1 receptor”. Further, the EC50 in test [3] is about 400 µM. At Adenosine A2A Receptor, the “difference between the agonist and antagonist mode in the rat adenosine assay” value is “at least 500 fold”.
On to `COc1ccc(-c2cc(=O)c3c(OC)c(OC)c(OC)cc3o2)cc1` [Tetramethylscutallarein, Scutallarein tetramethyl ether], for which the classification entry with adenosine receptors is listed as “adenosine A1 antagonist”. In test [3], the EC50 was about 300 µM. For the same molecule, the “affinities, basal signal and stimulated signal in the human A1 assay” value in test [4] was “below 10 µM”. For the same molecule, the IC50 in test [2] (setting [8]) was 1.9 µM; in test [2] (setting [9]) it was 1.3 µM; in test [2] (IC50 Mean, mean of 1.M and 2.M), 1.6 µM. Moreover, the “difference between the agonist and antagonist mode in the rat adenosine assay” value on Adenosine A2A Receptor is “at least 100 fold”. Further, the “effect on the basal signal in the rat assay” value at Adenosine A2A Receptor (agonist mode) is “almost no effect”.

The values are drawn from EP4631502A1 (Nicoventures Trading Limited, priority 2024, dated 2025).
